Earlier results, collected in paper PMC10613275 (Scientific Reports, 2023).
Like-named read-outs stand apart in the source and are kept apart here.

Legend:
[1] = parameters: method as in PMID 24239523; conditions: concentrations up to 500 μM ref 5; cited from earlier work
[2] = tested on: Hek293 cells; conditions: Hek293 ref 2; cited from earlier work
[3] = parameters: method as in PMID 32461162; conditions: cited from earlier work

In the case of `CC(C=O)Cc1ccc(C(C)(C)C)cc1` (centres unmarked) [Lilial, 3-(4-(tert-butyl)phenyl)-2-methylpropanal], the “Genotoxicity at the chromosomal level (clastogenicity or aneuploidy) or single-strand breaks” value [1] is given as “did not induce genotoxicity”, the “Effect on cell viability” value [2] is given as “no negative effect” and the Dermal absorption value ([3]; hydroalcoholic-based fragrances and deodorant/antiperspirant products ref 3) is given as 13.5%. The Dermal absorption value ([3]; oil-in-water-based products ref 3) was 8.9% and the Dermal absorption value ([3]; water-in-oil-based products ref 3) was 10.5%.
